Patent publication US10799456B2, “Multiple drug lipid nanoparticle composition and related methods for extended drug levels in blood and lymph tissue” (priority 2015, dated 2020)

How the values were obtained:
[1] = Octanol-buffer distribution coefficient (shake-flask); type: physicochemical; settings: room temperature
Protocol: The octanol-buffer drug distribution coefficient at room temperature was determined by a small-scale, shake-flask method described by Dittert L W, et al. Phase Solubility Technique in Studying the Formation of Complex Salts of Triamterene. Journal of pharmaceutical sciences. […] Briefly, phosphate-buffered saline (PBS) at pH 3, 5, and 7.4 was used as the aqueous phase. […] The mixture was centrifuged at 14,000 rpm (18,078 g) (Beckman Coulter™ Microfuge® 18 centrifuge, Beckman Coulter Inc., Brea, Calif.) to separate octanol and the aqueous phase. The drug concentration in the two phases was determined with high-performance liquid chromatography tandem mass spectrometry (HPLC/MS/MS). The distribution coefficient was calculated as the ratio of the drug concentration in the octanol phase to the drug concentration in the aqueous phase. Triplicate samples were used at each pH.

[2] = Drug incorporation efficiency into lipid-drug nanoparticles (dialysis); type: physicochemical; settings: for Incorporation efficiency (%) / Drug incorporation (% total): preclinical 45 mL scale
Protocol: J Acquir Immune Defic Syndr. […] Journal of pharmaceutical sciences. […] The AAPS journal. […] Residual solvent was removed overnight by vacuum desiccation. The dried lipid-drug film was then rehydrated with 0.9% NaCl containing 20 mM sodium bicarbonate (pH 7.4). The lipid-drug samples were allowed to hydrate at 60° C. for 2 h. Then samples were sonicated (laboratory scale) or homogenized (preclinical scale) to achieve a homogenous suspension.
The incorporation efficiency was calculated as the ratio of the amount of incorporated drug over the total amount of drug loaded multiplied by 100%.

[3] = Particle size by photon correlation spectroscopy; type: physicochemical
Protocol: The mean particle size of lipid-drug nanoparticles and liposome control was determined by photon correlation spectroscopy (PCS) using a NICOMP™ 380ZLS instrument (NICOMP Particle Sizing Systems, Santa Barbara, Calif.). […] Samples were diluted with the same buffer to an identical final volume to analyze concentration effects. The light scattering data were analyzed based on intensity-weight NICOMP size distribution and expressed as a mean±SD.
Briefly, lipids and protease inhibitors were dissolved in chloroform:ethanol (3:1 v/v) and PMPA was added from a stock solution of 30 mg/ml in aqueous 150 mM NaHCO3. Solvent was removed by rotary evaporation and vacuum desiccation. The dry film was rehydrated to 200 mM lipid in 0.4% NaCl with 20 mM NaHCO3 buffer at 60° C. Particle size was reduced at 60° C. by bath sonication (laboratory scale) or high-pressure homogenization using an Emulsiflex-05 (Avestin, Ottawa, Canada) (clinical scale). LNPs were maintained at 60° C. to anneal for 30 min prior to cooling and stored at 4° C. Particle size was determined by photon correlation spectroscopy using a NICOMP 380 ZLS (Particle Sizing Systems, Santa Barbara, Calif.).

[4] = Plasma time course of ATV/RTV/TFV lipid nanoparticles in primates; type: in vivo, Macaca nemestrina; settings: male, Macaca nemestrina, in vivo, sc
Protocol: All animal procedures were performed under an approved protocol reviewed by the University of Washington Institutional Animal Care and Use Committee. […] ATV, RTV, and TFV in the plasma were extracted in duplicate and analyzed with a liquid chromatography-mass spectrometry assay with a validated reverse phase HPLC/MS/MS method, similar to that of lopinavir (LPV), RTV, and TFV. […] Antimicrobial agents and chemotherapy. 2014. The linear trapezoidal method was used to calculate the area under the plasma drug concentration-time curve (AUC) for ATV, RTV, and TFV during the time course, which was close to 168 h post-dosing. […] All drugs in buffer and plasma were analyzed using a validated HPLC/MS/MS analytical method, capable of analyzing […], and TFV. The one-step analysis for LPV, RTV, and TFV was published previously. […] Antimicrobial agents and chemotherapy. 2014. Briefly, the HPLC system was outfitted with a Shimadzu 20AD HPLC (Shimadzu Scientific Instruments, Inc., Pleasanton, Calif.). […] Multiple reaction monitoring (MRM) was used to detect transition ions from a specific precursor ion to product ion. The analytes were detected using the following m/z transitions: 705.5/168.2 for ATV, 548.3/392.3 for DRV, 721.3/296.1 for RTV, 288.1/176 for TFV, and 238.1/193.2 for cyheptamide.

[5] = Drug incorporation/encapsulation (association) efficiency of multi-drug LNPs by dialysis; type: physicochemical
Protocol: The anti-HIV LNP formulations contain both unbound drug and drugs bound to lipid nanoparticles. […] Drugs were quantified by LC-MS/MS using acetonitrile precipitation. Encapsulation efficiency (EE) was calculated as follows: […]

[6] = % Drug association to particles by assembly method; type: physicochemical
Description: Select one or two drugs hydrophilic and water soluble (Class 2) drugs listed in Table 19 (for example, tenofovir and/or emtricitabine and/or lamivudine). • 3. Select the excipient combination (for example, 9 parts DSPC and 1 part PEG-DSPE). • 4. Prepare a single-phase miscible solvent that enables full solubilization of the chosen water-insoluble Class 1 drugs and water soluble Class 2 drugs plus the excipients from step 3. Examples include CHCl3:Methanol:Water (65:35:4); CHCl3:Ethanol:Water (65:35:4); CHCl3:Propanol:Water (65:35:4); and CHCl3:Hexanol:Water (65:35:4). • 5. The components in Steps 1, 2 and 3 are solubilized with the miscible solvent in step 4. • 6. The drugs (steps 1 and 2) as well as excipients (step 3) and the miscible solvent (step 4) are dried under reduced pressure with assistance of a combination of heat, reduced pressure and/or aerosolization to provide for uniformity and efficiency of drying. • 7. The dehydrated composition is heated above gel-to-liquid phase transition temperature of the excipient mixture (e.g., 50° C.). • 8. A buffered saline solution is prepared and the temperature is equilibrated to the same temperature as dehydrated composition. • 9. The buffered saline solution and dehydrated composition are gradually combined and maintained at the defined (e.g., 50° C.) for 3 hr. • 10. The resulting hydrated multi-drug lipid nanoparticles are size-reduced by sheering or forcing through small orifice or pressurized filter apparatus while maintaining at the defined temperature (in liquid phase of lipidic excipients).

[7] = cited from earlier work
[8] = cited from earlier work; for Hydrophobicity (Log P): Tables 20 and 21; for LogP: Tables 18 and 19
[9] = reported values; cited from earlier work
[10] = Plasma drug exposure of three multi-drug lipid formulations vs free drug in primates; settings: monkey, in vivo, sc, AUC Lipid Drug 0-168 h, LPV/EFV/TFV combination

Structure (SMILES)	% Drug Association to Particles, LNPs from mixture of dual solvent method [6]	% Drug Association to Particles, LNPs from single, miscible solvent method [6]	Water solubility @ 25° C. [7] [µg/mL]	Hydrophobicity (Log P) [8]	LogP [8]	% Drug Association to Particles, Liposomes [9]	further results
COC(=O)N[C@H](C(=O)N[C@@H](Cc1ccccc1)[C@@H](O)CN(Cc1ccc(-c2ccccn2)cc1)NC(=O)[C@@H](NC(=O)OC)C(C)(C)C)C(C)(C)C [Atazanavir (ATV), Atazanavir]	90-100%	90-100%	0.11	5.6	–	–	Log D (measured) ([1]; pH 3, octanol/PBS): 3.40 ± 0.31; Log D (measured) ([1]; pH 5, octanol/PBS): 4.66 ± 0.27; Log D (measured) ([1]; pH 7.4, octanol/PBS): 5.77 ± 0.03; Incorporation efficiency (%) ([2]; LNPs with ATV + RTV + TFV (2:1:3), laboratory 0.2 mL scale): 104.2 ± 3.2%; Incorporation efficiency (%) / Drug incorporation (% total) ([2]; LNPs with ATV + RTV + TFV (2:1:3)): 85.5 ± 8.2%; Incorporation efficiency (%) / Drug incorporation (% total) ([2]; LNPs with ATV + RTV + TFV (2:1:3), listed as atazanavir): 85.5±8.2%; Incorporation efficiency (%) ([2]; LNPs with ATV + RTV, laboratory scale, lipid:drug 8:1): 93.5 ± 6.6%; Incorporation efficiency (%) ([2]; LNPs with ATV, laboratory scale, lipid:drug 8:1): 100.5 ± 8.2%; Incorporation efficiency (%) ([2]; lipid:drug 5:1 mol/mol, DSPC:DSPE-mPEG2000 8:2): 96.5 ± 2.6%; Incorporation efficiency (%) ([2]; lipid:drug 8:1 mol/mol, DSPC:DSPE-mPEG2000 8:2): 96.2 ± 3.8%; Incorporation efficiency (%) ([2]; lipid:drug 20:1 mol/mol, DSPC:DSPE-mPEG2000 8:2): 97.4 ± 1.8%; Particle size (nm) ([3]; lipid:drug 5:1 mol/mol): 68.2 ± 7.1 nm; Particle size (nm) ([3]; lipid:drug 8:1 mol/mol): 56.3 ± 4.1 nm; Particle size (nm) ([3]; lipid:drug 20:1 mol/mol): 34.6 ± 3.1 nm; AUC fraction (% total) 8-168 h [4]: 95.3%; % particle-bound ([5]; Combination 2, lipid:ATZ:RTV:TFV 115:10:5:15, large scale): (91.9 ± 6.8) %
C[C@@H]1CCO[C@H]2Cn3cc(C(=O)NCc4ccc(F)cc4F)c(=O)c(O)c3C(=O)N12 [Dolutegravir]	–	–	95	–	2.4	–	–
O=C1Nc2ccc(Cl)cc2[C@@](C#CC2CC2)(C(F)(F)F)O1 [Efavirenz]	76%	80-90%	0.000093	4	4	80%	% particle-bound ([5]; Combination 3, lipid:LPV:EFV:TFV 200:26.6:20:40, large scale): (78.7) %; AUC [10]: 31200 ± 2700 ng·h/mL
Nc1nc(=O)n([C@@H]2CS[C@H](CO)O2)cc1F [Emtricitabine]	3-10%	78-80%	112000	−1.4	−2.4	1-2%	–
CC(C)(C)NC(=O)[C@@H]1CN(Cc2cccnc2)CCN1C[C@@H](O)C[C@@H](Cc1ccccc1)C(=O)N[C@H]1c2ccccc2C[C@H]1O [Indinavir]	–	–	–	–	2.3	–	–
Nc1ccn([C@@H]2CS[C@H](CO)O2)c(=O)n1 [Lamivudine]	10-30%	85%	–	–	–	4-5%	–
Cc1nnc(C(=O)NC(C)(C)c2nc(C(=O)NCc3ccc(F)cc3)c(O)c(=O)n2C)o1 [Raltegravir]	9-25%	75-89%	100	–	−0.39	–	–
Cc1cc(/C=C/C#N)cc(C)c1Nc1ccnc(Nc2ccc(C#N)cc2)n1 [Rilpivirine]	75-76%	90-100%	0.094	4.5	–	14%	–
